# Literature values, collected in patent US20060234297A1, “Screening method” (priority 2003, published 2006).
# Assays:
# [1] = test system: mouse macrophages stimulated with phorbol ester or tumor necrosis factor (TNF-α)
# [2] = test system: progression of arteriosclerosis; conditions: clinical study
smiles,measurement,setting,value
CCOC(=O)C1=C(C)NC(C)=C(C(=O)OCC)C1c1ccccc1/C=C/C(=O)OC(C)(C)C [lacidipine],MMP-9 secretion and production,[1],suppressed MMP-9 secretion and production
same,effect on the progression of arteriosclerosis,[2],suppressive effect on the progression of arteriosclerosis
